{"source": "patent US20050100563A1", "about": "“Antifungal compositions and methods of treatment therewith” (priority 2001, published 2005)", "origin": "cited, not measured here", "conditions": "in water; stated in parentheses, no measurement described"}
{"molecule": "[O]=[Sn]([F])[F]", "note": "[stannic oxyfluoride]", "values": [{"measurement": "solubility", "result": "approximately 0.3%"}]}
